The values that follow come from ChEMBL document CHEMBL1152593, “Furanocoumarins: novel topoisomerase I inhibitors from Ruta graveolens L” (Bioorg Med Chem, 2009).

Active and inactive are the calls of the source. The rule behind the calls is not given here.

The species entered for test [1] is Bos taurus. The experiment in a line: Inhibition of calf thymus DNA topoisomerase 1 assessed as pUC19 DNA relaxation at 10 uM by gel electrophoresis.
For test [2], the species on record is Bos taurus. In words: Inhibition of calf thymus DNA topoisomerase 1 assessed as pUC19 DNA relaxation at 20 uM by gel electrophoresis.
A short description of test [3]: (§1) Inhibition of calf thymus DNA topoisomerase 1 assessed as pUC19 DNA relaxation by gel electrophoresis. Further details: species or system Bos taurus.
Test [4] is filed under the species Bos taurus. Described as §1.
The species named for test [5] is Bos taurus. The experiment in a line: Inhibition of calf thymus DNA topoisomerase 1 assessed as pUC19 DNA relaxation at 40 uM by gel electrophoresis.

One may read the inhibition as the relative decrease from the control value, in per cent. Usually IC50 stands for the concentration that inhibits the measured activity by half. As for `O=c1ccc2cc3ccoc3cc2o1` [PSORALEN], the inhibition result in the test filed under Bos taurus [1] is “inactive”. In addition, the inhibition in the test filed under Bos taurus [2] was 100%; in the test filed under Bos taurus [4] it was “Dose-dependent effect”. For the same molecule, the IC50 in test [3] is 11 µM.

As to `COc1c2occc2cc2ccc(=O)oc12` [METHOXSALEN], the inhibition entry in the test filed under Bos taurus [5] was “Active”. Moreover, the IC50 in test [3] turned out to be 28 µM. Besides, the inhibition entry in the test filed under Bos taurus [4] is “Dose-dependent effect”.

Turning to `COc1c2ccoc2cc2oc(=O)ccc12` [BERGAPTEN], in the test listed under Bos taurus [1], the result was Active. In test [3], the IC50 turned out to be 6.5 µM. Further, the inhibition result in the test listed under Bos taurus [4] is “Dose-dependent effect”.
